Structures are written as SMILES. “And” between values parts separate entries of the source, which are not always exact repeats. Equal entries are not always repeated.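 How tested: cells in 96-well plates exposed to compound for 48 hours at five concentrations. The concentration for full growth arrest is given as TGI.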

Among the test systems are SN12C renal; MDA-N; COLO 205 colon; HS 578T breast; SR leukemia; HCT-15 colon; HL-60(TB) leukemia; BT-549 breast; M14 melanoma; HCC-2998 colon; HOP-92 NSCLC.
Assay in all cases: NCI-60 cell line screen, 48 h

For the compound `CCCCC(C#N)(OP1(=O)OC(c2ccccc2)C(C)N1C)c1ccccc1` (stereo not drawn), the TGI in the test with SN12C renal was found to be 31.3 µM; in the test with MDA-N it was 31.3 µM; with COLO 205 colon, 35.4 µM; in the test with HS 578T breast it was 39.3 µM; in the test with SR leukemia, 43.9 µM; with HCT-15 colon, 54.8 µM. Further, the TGI was 36 µM in the test on HL-60(TB) leukemia; 43.6 µM in the test on BT-549 breast; 38.3 µM in the test on M14 melanoma; 28.9 µM in the test with HCC-2998 colon; 25.8 µM with HOP-92 NSCLC.

As to `COc1ccc2nc3ccc(OC)cc3c(SCCO)c2c1`, the TGI in the test with SN12C renal was > 100 µM; in the test with MDA-N it was > 100 µM; in the test on COLO 205 colon, > 64.3 µM; with HS 578T breast, > 100 µM; in the test on SR leukemia, > 79.1 µM; in the test on HCT-15 colon, > 100 µM. Further, the TGI in the test on HL-60(TB) leukemia is 19.9 µM; in the test with BT-549 breast, > 100 µM; in the test with M14 melanoma it was > 100 µM; in the test on HCC-2998 colon, > 100 µM; in the test with HOP-92 NSCLC it was > 100 µM.

Regarding `CC(O)c1cc2c(s1)C(=O)c1sccc1C2=O` (stereo not drawn), the TGI is 0.192 µM with SN12C renal; 0.0367 µM in the test on MDA-N; 1.09 µM in the test on COLO 205 colon; > 100 µM in the test on HS 578T breast; > 100 µM with SR leukemia; 0.178 µM in the test with HCT-15 colon. For the same compound, the TGI in the test on HL-60(TB) leukemia was > 100 µM; with BT-549 breast, 0.175 µM; in the test with M14 melanoma, 0.0494 µM; with HCC-2998 colon it was 0.402 µM; with HOP-92 NSCLC it was 2.06 µM.

Take `CC(C)/C(Cl)=N\OC(=O)Nc1ccccc1F`: the TGI in the test with SN12C renal is 26.8 µM; in the test with MDA-N, 30.6 µM; with COLO 205 colon it was 4.2 µM; with HS 578T breast, > 69.3 µM; in the test on SR leukemia it was 6.54 µM; in the test on HCT-15 colon, 31.3 µM. In addition, the TGI with HL-60(TB) leukemia was 4.13 µM; in the test with BT-549 breast, 27.6 µM; in the test on M14 melanoma, 13.3 µM; in the test on HCC-2998 colon it was 19.6 µM; in the test on HOP-92 NSCLC, 4.06 µM.

On to `COc1ccc2c(CCN)c(C(=O)O)[nH]c2c1`, for which the TGI in the test on SN12C renal was > 100 µM; in the test with MDA-N, > 100 µM; in the test on COLO 205 colon it was > 100 µM; with HS 578T breast, > 100 µM; in the test on SR leukemia, > 43.7 µM; in the test on HCT-15 colon, > 100 µM. The TGI with HL-60(TB) leukemia, with BT-549 breast, in the test on M14 melanoma, in the test with HCC-2998 colon and with HOP-92 NSCLC was > 100 µM each time.

Take `C[C@H](CCC(=O)NCCS(=O)(=O)O)[C@H]1CC[C@H]2[C@@H]3CC[C@@H]4C[C@H](O)CC[C@]4(C)[C@H]3CC[C@]12C`: the TGI with SN12C renal, with MDA-N, with COLO 205 colon, in the test on HS 578T breast, in the test with SR leukemia and in the test with HCT-15 colon was > 100 µM in each case. Besides, the TGI with HL-60(TB) leukemia, in the test on BT-549 breast, with M14 melanoma, with HCC-2998 colon and with HOP-92 NSCLC was > 100 µM in each case.

Regarding `COC(=O)C(Cc1c(C2Nc3ccccc3C2CC(NC(=O)CNC(C)=O)C(=O)OC)[nH]c2ccccc12)NC(=O)CNC(C)=O` (stereo not drawn), the TGI in the test with SN12C renal, in the test on MDA-N, with COLO 205 colon, with HS 578T breast, in the test on SR leukemia and with HCT-15 colon was > 100 µM in each case. Further, the TGI in the test on HL-60(TB) leukemia, in the test on BT-549 breast, with M14 melanoma, in the test on HCC-2998 colon and with HOP-92 NSCLC was > 100 µM each time.

Regarding `COC(=O)C1=C(C(=O)OC)C(C(=O)c2ccc(Br)cc2)N2N=C(c3ccc(Cl)cc3)C=CC12` (stereo not drawn), the TGI in the test on SN12C renal, with MDA-N, in the test with COLO 205 colon, with HS 578T breast, in the test on SR leukemia and in the test with HCT-15 colon was > 100 µM in each case. Moreover, the TGI in the test with HL-60(TB) leukemia, with BT-549 breast, with M14 melanoma, in the test with HCC-2998 colon and in the test with HOP-92 NSCLC was > 100 µM in each case.

In the case of `CC(=O)OCCOCn1c2c(c(=S)[nH]c1=O)CCC2`, the TGI in the test on SN12C renal, with MDA-N, in the test on COLO 205 colon, with HS 578T breast, with SR leukemia and with HCT-15 colon was > 100 µM in each case. Moreover, the TGI in the test with HL-60(TB) leukemia, in the test with BT-549 breast, with M14 melanoma, in the test on HCC-2998 colon and with HOP-92 NSCLC was > 100 µM each time.

For `COC(=O)NCCc1[nH]nc2c1C(=O)C=C(N1CCOCC1)C2=O`, the TGI in the test on SN12C renal, in the test with MDA-N, in the test on COLO 205 colon, in the test on HS 578T breast, in the test with SR leukemia and in the test with HCT-15 colon was > 100 µM in each case. The TGI in the test with HL-60(TB) leukemia, with BT-549 breast, with M14 melanoma, with HCC-2998 colon and with HOP-92 NSCLC was > 100 µM in each case.

For the compound `CC(=O)OC(/C=C/c1ccccc1)P1(=O)N(CC(C)(C)C)[C@@H]2CCCC[C@H]2N1CC(C)(C)C` (stereo partly drawn), the TGI in the test with SN12C renal was 22.6 µM and 21.6 µM; in the test on MDA-N it was 23.1 µM and 21 µM; in the test on COLO 205 colon, 13.2 µM and 10.8 µM; in the test on HS 578T breast it was 24.5 µM and 27.1 µM; with SR leukemia, 19.5 µM and 14.5 µM; with HCT-15 colon it was 20.9 µM and 17.6 µM. Also, the TGI was 21.6 µM and 18.7 µM in the test with HL-60(TB) leukemia; 28.5 µM and 25.9 µM in the test with BT-549 breast; 17.5 µM and 18.9 µM with M14 melanoma; 16.1 µM and 8.6 µM in the test with HCC-2998 colon; 26.4 µM with HOP-92 NSCLC.

Consider `COC(=O)c1c(O)ccc2c1c1c(n2Cc2ccccc2Cl)C(=O)c2ccccc2C1=O`, for which the TGI in the test with SN12C renal amounted to 23.2 µM; in the test with MDA-N, 31.1 µM; with COLO 205 colon, 15.8 µM; with HS 578T breast it was 59 µM; in the test with SR leukemia, 47.8 µM; with HCT-15 colon it was 31.8 µM. The TGI turned out to be 49.6 µM in the test on HL-60(TB) leukemia; 29.2 µM with BT-549 breast; 34 µM in the test on M14 melanoma; 29.9 µM with HCC-2998 colon; 29.8 µM in the test with HOP-92 NSCLC.

For `CC[C@H](O)[C@H](C)C=C1SCCCS1`, the TGI with SN12C renal, with MDA-N, in the test on COLO 205 colon, in the test with HS 578T breast, with SR leukemia and in the test on HCT-15 colon was > 100 µM throughout. Moreover, the TGI was 89.7 µM in the test on HL-60(TB) leukemia; > 100 µM in the test with BT-549 breast; > 100 µM in the test on M14 melanoma; > 100 µM in the test on HCC-2998 colon; > 100 µM in the test with HOP-92 NSCLC.

On to `CCC(CON(C)c1ccccc1)(SC)SC`, for which the TGI in the test on SN12C renal, in the test on MDA-N, in the test with COLO 205 colon, in the test with HS 578T breast, with SR leukemia and with HCT-15 colon was > 100 µM each time. The TGI in the test with HL-60(TB) leukemia, with BT-549 breast, in the test on M14 melanoma, in the test with HCC-2998 colon and in the test on HOP-92 NSCLC was > 100 µM throughout.

Turning to `N#CCc1n[nH]c(Cc2ccccc2)n1`, the TGI with SN12C renal, in the test on MDA-N, with COLO 205 colon, in the test on HS 578T breast, with SR leukemia and in the test with HCT-15 colon was > 100 µM each time. Moreover, the TGI in the test with HL-60(TB) leukemia, in the test with BT-549 breast, in the test with M14 melanoma, with HCC-2998 colon and in the test with HOP-92 NSCLC was > 100 µM in each case.

`O=C(c1ccccc1)N1CCN(C(=S)N(C(=O)c2ccccc2)c2ccccc2)C1=S`: the TGI in the test with SN12C renal was 12.2 µM; in the test with MDA-N, 17.1 µM; in the test on COLO 205 colon, 13.2 µM; in the test on HS 578T breast, > 27.1 µM; in the test with SR leukemia, > 100 µM; in the test with HCT-15 colon, 7.76 µM. Further, the TGI in the test on HL-60(TB) leukemia is 3.81 µM; in the test with BT-549 breast, 13.7 µM; in the test on M14 melanoma it was 9.51 µM; in the test on HCC-2998 colon, 14.5 µM; in the test with HOP-92 NSCLC, 20 µM.

Take `CCCN(CCCC(NC(C)=O)C(=O)NCc1ccccc1)C(=O)N(CCCl)N=O` (stereo not drawn): the TGI is > 76.1 µM in the test with SN12C renal; > 100 µM with MDA-N; 42.6 µM in the test with COLO 205 colon; > 100 µM with HS 578T breast; 17.5 µM in the test on SR leukemia; 42.5 µM with HCT-15 colon. The TGI stood at 30.6 µM in the test on HL-60(TB) leukemia; 54.1 µM in the test on BT-549 breast; 31.7 µM with M14 melanoma; 26.4 µM in the test with HCC-2998 colon; 46.6 µM in the test with HOP-92 NSCLC.

Consider `CCSc1sc(=Nc2ccc(N=c3sc(C)c(SC)s3)cc2)sc1-c1ccc(C)cc1`, for which the TGI with SN12C renal, with MDA-N, in the test on COLO 205 colon, in the test with HS 578T breast, with SR leukemia and in the test on HCT-15 colon was > 100 µM in each case. In addition, the TGI with HL-60(TB) leukemia, in the test on BT-549 breast, in the test on M14 melanoma, in the test with HCC-2998 colon and in the test with HOP-92 NSCLC was > 100 µM in each case.

(Values after PubChem BioAssay (NCI).)
